Laboratory results as given in PMC11602115 (Journal of Medicinal Chemistry, 2017).
pEC50, pIC50, pKd, pKi: −log10 of the molar value.

Key:
IP [1] = biological target: T1, IP (Homo sapiens, UniProt P43119); assay: HTRF cAMP assay, recombinant human IP receptor stably expressed in CHO-K1 cells; assay type: cell-based; parameters: expressed in transfected cells; details: for Emax: CHO-K1, read-out: hIP % IA; for pEC50: HTRF (cAMP) human IP receptor assay, mean of at least three determinations
Protocol: (§1) The new compounds were tested for functional agonist activity in a standard (Cisbio) cAMP assay using recombinant IP or DP1 receptors stably expressed in CHO-K1 cells. Clonal cell lines were derived following standard protocols, but receptor expression levels were kept to a minimum to preclude receptor reserve effects.
(§2) For development of cAMP accumulation assays, recombinant IP or DP1 receptors were stably expressed in CHO-K1 cells and clonal cell lines derived following standard protocols. Receptor expression levels were minimized to preclude receptor reserve effects. HTRF cAMP assays were performed according to the manufacturer’s instructions (Cisbio, cAMP Dynamic 2 assay kit; no. 62AM4PEJ). IP receptor-expressing cells were harvested, resuspended in assay buffer (PBS containing 1 mM IBMX and 0.2% BSA) at a density of 200 000 cells per mL, and dispensed into 384-well assay plates (PerkinElmer Proxiplate no. 6008280) at 5 μL per well. Test compounds were solubilized and serially diluted in DMSO using 5-fold dilutions to generate a 10-point dose–response curve with a top concentration of 10 μM. The samples were then further diluted in PBS to achieve a 2× stock. Diluted compounds were then transferred to a triplicate set of assay plates (5 μL per well). After a 1 h incubation at room temperature, 5 μL of cAMP-D2 reagent diluted in lysis buffer was added to each well followed by 5 μL of cryptate reagent. Plates were then incubated at room temperature for 1 h prior to reading. Time-resolved fluorescence measurements were collected on PerkinElmer Envision or BMG Pherastar microplate readers.

[2] = Metabolite profile of 5c in the rat; assay type: in vivo; details: rat, after dosing of 5c
Source text: (§3) A taurine-conjugated metabolite was subsequently identified in bile (M1, Figure 4), which was also observed in circulating plasma, although at much lower concentrations (∼5%) compared to parent. Further, two oxidized products, one of which was also a taurine-conjugate, were identified (M2 and M3) in plasma. […] It is known that taurine can be conjugated to bile acids and these conjugates may be hydrolyzed in the gut which allows for bile acid reabsorbtion.[19]

[3] = Incubation in simulated gastric fluid; assay type: physicochemical; details: room temperature, 3 h
Source text: as §3

IP [4] = biological target: T1, IP; assay: Radioligand binding, human IP ([3H]-iloprost); parameters: expressed in transfected cells; host or cells: CHO-K1 (crude membranes); details: Figure 4; read-out: Ki hIP
Protocol: (§4) CHO-K1 cells expressing recombinant IP receptors were harvested, washed with ice-cold phosphate buffered saline, pH 7.4 (PBS), and then centrifuged at 48 000g for 20 min at 4 °C. The resulting cell pellet was then resuspended in ice-cold PBS containing 20 mM HEPES, pH 7.4, and 0.1 mM EDTA, homogenized on ice using a Brinkman Polytron, and centrifuged (48 000g for 20 min at 4 °C). This resuspension and centrifugation process was repeated one further time. Crude membrane pellets were stored at −80 °C until used for radioligand binding assays.
(§5) Assay incubations were terminated by rapid filtration through PerkinElmer GF/C filtration plates pretreated with 0.3% PEI, under vacuum pressure using a 96-well Packard filtration apparatus, followed by multiple washes with ice-cold wash buffer (PBS containing 20 mM HEPES and 0.1 mM EDTA, pH 7.4). Plates were then dried at 45 °C for a minimum of 2 h. Finally, 25 μL of BetaScint scintillation cocktail was added to each well and plates were counted in a Packard TopCount scintillation counter. In each competition study, test compounds were dosed at 10 concentrations with triplicate determinations at each test concentration.

rat IP [5] = biological target: T2, rat IP (Rattus norvegicus, UniProt P43253); assay: Radioligand binding, rat IP ([3H]-iloprost); parameters: expressed in transfected cells; host or cells: CHO-K1 (crude membranes); details: radioligand, recombinant receptor membranes; read-out: measured Kd, rat IP
T2 sequence (P43253 whole entry): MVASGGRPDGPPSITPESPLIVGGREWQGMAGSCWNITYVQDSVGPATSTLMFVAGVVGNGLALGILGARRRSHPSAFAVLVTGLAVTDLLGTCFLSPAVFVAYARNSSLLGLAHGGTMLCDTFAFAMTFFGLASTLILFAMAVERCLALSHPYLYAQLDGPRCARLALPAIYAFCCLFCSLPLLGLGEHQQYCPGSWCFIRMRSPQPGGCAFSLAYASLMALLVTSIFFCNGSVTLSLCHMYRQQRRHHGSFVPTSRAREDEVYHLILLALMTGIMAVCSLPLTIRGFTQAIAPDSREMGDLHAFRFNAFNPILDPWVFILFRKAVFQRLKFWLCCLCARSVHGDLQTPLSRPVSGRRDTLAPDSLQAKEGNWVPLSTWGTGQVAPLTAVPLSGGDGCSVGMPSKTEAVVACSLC
Protocol: as §4
as §5, with “concentration. A reference compound, typically iloprost, was included in every runset for quality control purposes.” for “concentration.”

monkey IP = assay: Radioligand binding, monkey IP ([3H]-iloprost); details: radioligand, recombinant receptor membranes; read-out: measured Kd, monkey IP
Protocol: as §4, §5

dog IP = dog IP (Canis lupus familiaris, UniProt A0A8I3MUB8); assay: Radioligand binding, dog IP ([3H]-iloprost); details: radioligand, recombinant receptor membranes; read-out: measured Kd, dog IP
Sequence of dog IP (A0A8I3MUB8 1-381): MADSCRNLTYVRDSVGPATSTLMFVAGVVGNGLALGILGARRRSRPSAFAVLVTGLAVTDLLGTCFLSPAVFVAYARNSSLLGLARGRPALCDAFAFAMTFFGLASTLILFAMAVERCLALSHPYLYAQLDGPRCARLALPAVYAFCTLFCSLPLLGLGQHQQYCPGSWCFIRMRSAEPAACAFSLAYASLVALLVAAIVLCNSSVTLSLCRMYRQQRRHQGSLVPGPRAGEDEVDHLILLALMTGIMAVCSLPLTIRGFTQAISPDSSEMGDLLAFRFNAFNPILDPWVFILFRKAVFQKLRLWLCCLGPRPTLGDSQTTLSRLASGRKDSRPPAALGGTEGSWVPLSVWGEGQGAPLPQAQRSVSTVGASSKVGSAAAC
Protocol: as §4
as §5, with “concentration. A reference compound, typically iloprost, was included in every runset for quality control purposes.” for “concentration.”

human platelet = assay: Inhibition of ADP-induced human platelet aggregation; assay type: cell-based; details: aggregation induced by 2.5 μM ADP, mean of at least two determinations
Protocol: Such aggregated and activated platelets produce vasoactive substances such as thromboxane and serotonin that may cause harmful vasoconstriction and vascular remodeling.[13] […] This secondary assay was carried out as previously described,[14] with aggregation induced by 2.5 μM ADP in the presence or absence of IP receptor agonists.

human DP1 receptor [6] = biological target: T3, human DP1 receptor (Homo sapiens, UniProt Q13258); assay: HTRF cAMP assay, recombinant human DP1 receptor in CHO-K1 cells; assay type: cell-based
T3 construct: expressed in transfected cells
T3 sequence (Q13258 1-359): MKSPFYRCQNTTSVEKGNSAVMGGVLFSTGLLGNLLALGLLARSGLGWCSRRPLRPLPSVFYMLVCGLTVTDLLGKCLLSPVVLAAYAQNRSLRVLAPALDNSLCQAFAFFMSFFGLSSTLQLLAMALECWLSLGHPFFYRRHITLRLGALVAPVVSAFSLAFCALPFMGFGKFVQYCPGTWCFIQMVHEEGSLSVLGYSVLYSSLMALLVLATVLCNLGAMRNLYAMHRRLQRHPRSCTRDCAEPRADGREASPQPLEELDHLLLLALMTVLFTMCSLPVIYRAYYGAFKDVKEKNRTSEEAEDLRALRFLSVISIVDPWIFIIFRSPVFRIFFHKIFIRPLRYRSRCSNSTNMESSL
Protocol: as §1, §2

[7] = Stability in rat microsome preparations; assay type: in vitro ADME; details: incubation at 37 °C, rat microsomes; read-out: rat MS, T1/2
Source text: (§6) Table 1 Screening Data for Selected Analogues ^a | column: human and rat MS, T1/2 (min) ^g

rat IP [8] = biological target: T2, rat IP; assay: HTRF cAMP assay, recombinant rat IP receptor; assay type: cell-based; parameters: expressed in transfected cells
Protocol: as §1, §2

[9] = system: prostaglandin receptors other than DP1; assay: Panel assays of prostaglandin receptors in melanophores; assay type: cell-based
[10] = Stability in human microsome preparations; assay type: in vitro ADME; details: incubation at 37 °C, human microsomes; read-out: human MS, T1/2
Source text: as §6

human DP1 receptor [11] = biological target: T3, human DP1 receptor; details: earlier series; cited from earlier work

T1 sequence (P43119 whole entry): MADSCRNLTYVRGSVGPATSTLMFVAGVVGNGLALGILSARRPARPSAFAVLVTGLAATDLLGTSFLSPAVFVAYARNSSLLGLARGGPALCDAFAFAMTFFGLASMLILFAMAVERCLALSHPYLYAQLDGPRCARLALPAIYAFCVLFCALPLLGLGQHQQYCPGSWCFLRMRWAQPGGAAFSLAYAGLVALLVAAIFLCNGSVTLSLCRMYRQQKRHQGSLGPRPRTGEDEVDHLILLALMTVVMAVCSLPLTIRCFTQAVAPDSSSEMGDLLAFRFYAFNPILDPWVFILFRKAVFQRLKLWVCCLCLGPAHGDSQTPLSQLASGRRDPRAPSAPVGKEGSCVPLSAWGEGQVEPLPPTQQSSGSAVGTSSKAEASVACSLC

With `O=C(COC[C@H]1CC[C@H](COC(=O)N(c2ccccc2)c2ccc(Cl)cc2)CC1)NCCS(=O)(=O)O` [M1, 2-(2-(((1r,4r)-4-(((4-Chlorophenyl)(phenyl)carbamoyloxy)methyl)cyclohexyl)methoxy)acetamido)ethanesulfonic Acid] the Emax (IP [1]) was 76%, the pEC50 (IP [1]) was 6.03 and the “concentration in circulating plasma compared to parent” value [2] was ~5%. The “chemical degradation to the parent in simulated gastric fluid” value [3] was “little chemical degradation” and the pKi (IP [4]) was 6.40.
For [^3H]-iloprost [reference compound], the pKd (rat IP [5]) was 8.15, the pKd (monkey IP) was 7.92 and the pKd (dog IP) was 7.81.
`O=C(O)COC[C@H]1CC[C@H](COC(=O)N(c2ccccc2)c2ccccc2)CC1` [5a, 2-(((1r,4r)-4-((Diphenylcarbamoyloxy)methyl)cyclohexyl)methoxy)acetic Acid] gave a pIC50 (human platelet) of 7.60, an Emax (human DP1 receptor [6]; CHO-K1, intrinsic activity relative to 1 μM PGD2, read-out: hDP1 % IA) of 59% and a pEC50 (human DP1 receptor [6]; HTRF (cAMP) human DP1 receptor assay, mean of at least three determinations, read-out: EC50 hDP1) of 6.45. For the same molecule, the Emax (IP [1]) was 77%, the pEC50 (IP [1]) was 7.68 and the half-life [7] was > 1 h. The pEC50 (rat IP [8]; HTRF (cAMP) rat IP receptor assay, mean of at least three determinations) was 6.44, the Emax (rat IP [8]; read-out: rIP % IA) was 89% and the “activity at prostaglandin receptors other than DP1” value [9] was “no activity”. For the same molecule, the half-life [10] was > 1 h.
For `O=C(O)COc1cccc2c1CC[C@H](Cn1ncc(-c3cccc(F)c3F)c(-c3ccc(F)cc3)c1=O)C2` [compound 3], the “IP to DP1 selectivity ratio” value (human DP1 receptor [11]) is listed as 8 fold.
